Measurements as given in US20060142356A1, “Novel therapeutic method and compositions for topical administration” (priority 2003, published 2006).
Like-named read-outs stand apart in the source and are kept apart here.

Columns and labels:
[1] = system: fasting plasma glucose in patients with type II diabetes; settings: cited from earlier work
Plasma bound fraction = format: in vitro ADME
Description: PBF is the plasma bound fraction. Plasma bound fraction may be determined experimentally in vitro by conventional known means using standard tests (preferably a method employing equilibrium dialysis).

[2] = Peak plasma concentration after oral dosing of farglitazar; format: in vivo, human
Description: Z is expressed in units of ng/ml and is the target local free (i.e. unbound) concentration that is expected to have a therapeutic effect against the skin condition. In the case of PPAR gamma agonists, Z should correspond to the peak plasma free drug concentration generated by dosing these drugs orally to treat effectively Type II diabetes mellitus. The appropriate value of Z may be determined experimentally in vivo by conventional known means using standard protocols.
The value Z for farglitazar is 0.31 ng/ml [Peak plasma concentration for a 5 mg dose is about 157 ng/ml; 0.31 is 157*(100-99.8)/100].

[3] = Rate of clearance of the drug substance (total systemic clearance); format: in vivo; settings: human, plasma; in adults
Description: C is expressed in units of ml/hr and is the rate of clearance of the drug substance. Clearance may be determined experimentally in vivo by conventional known means using standard tests. For example it can be determined from the plasma concentration in response to a defined input of drug using the equation given below: Clearance (ml/hr)=Input rate (ng/hr)/Total plasma concentration (ng/ml)

Plasma bound fraction (Plasma bound fraction) | Peak plasma concentration ([2]; 5 mg dose, total drug) | Z, target local free (unbound) concentration = peak plasma free drug concentration ([2]; 157*(100-99.8)/100, 5 mg dose) | clearance [3] | SMILES | Time to achieve a reduction of fasting plasma glucose by 2 mmol/l ([1]; 2 mg b.i.d. dosage regimen) | Time to achieve a reduction of fasting plasma glucose by 2 mmol/l ([1]; 4 mg b.i.d. dosage regimen)
– | – | – | – | CN(CCOc1ccc(CC2SC(=O)NC2=O)cc1)c1ccccn1 (stereo not drawn) [rosiglitazone, 5-[4-[2-(N-methyl-N-(2-pyridyl)amino)ethoxy]benzyl]thiazolidine-2,4-dione] | about 8 weeks | about 4 weeks
99.8% | about 157 ng/ml | 0.31 ng/mL | 250 mL/min | Cc1oc(-c2ccccc2)nc1CCOc1ccc(C[C@H](Nc2ccccc2C(=O)c2ccccc2)C(=O)O)cc1 [farglitazar, N-(2-benzoylphenyl)-O-[2-(5-methyl-2-phenyl-4-oxazolyl)ethyl]-L-tyrosine] | – | –
